Data: US7846959B2, “Raf modulators and methods of use” (Exelixis, Inc., priority 2004, dated 2010)

Assays:
B-Raf = B-Raf (Homo sapiens, UniProt P15056); assay: Luciferase-coupled chemiluminescence kinase assay (ATP consumption), B-Raf; type: biochemical; conditions: read-out: bRaf IC50
How it was run: (§1)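 Raf enzyme ([…]) pre-incubated with compound 30 minutes at room temperature in 20 mM Tris pH 7.5, 10 mM MgCl2, 0.03% TX-100, 1 mM DTT, then reacted with ATP for 3 hrs at ambient temperature. Remaining ATP quantified by luciferase-luciferin chemiluminescence, consumption held at 25-60%; IC50 reported.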

c-Raf = c-Raf (Homo sapiens, UniProt P04049); assay: Luciferase-coupled chemiluminescence kinase assay (ATP consumption), c-Raf; type: biochemical; conditions: read-out: cRaf-1 IC50
How it was run: as §1

c-Raf, sequence (P04049 whole entry): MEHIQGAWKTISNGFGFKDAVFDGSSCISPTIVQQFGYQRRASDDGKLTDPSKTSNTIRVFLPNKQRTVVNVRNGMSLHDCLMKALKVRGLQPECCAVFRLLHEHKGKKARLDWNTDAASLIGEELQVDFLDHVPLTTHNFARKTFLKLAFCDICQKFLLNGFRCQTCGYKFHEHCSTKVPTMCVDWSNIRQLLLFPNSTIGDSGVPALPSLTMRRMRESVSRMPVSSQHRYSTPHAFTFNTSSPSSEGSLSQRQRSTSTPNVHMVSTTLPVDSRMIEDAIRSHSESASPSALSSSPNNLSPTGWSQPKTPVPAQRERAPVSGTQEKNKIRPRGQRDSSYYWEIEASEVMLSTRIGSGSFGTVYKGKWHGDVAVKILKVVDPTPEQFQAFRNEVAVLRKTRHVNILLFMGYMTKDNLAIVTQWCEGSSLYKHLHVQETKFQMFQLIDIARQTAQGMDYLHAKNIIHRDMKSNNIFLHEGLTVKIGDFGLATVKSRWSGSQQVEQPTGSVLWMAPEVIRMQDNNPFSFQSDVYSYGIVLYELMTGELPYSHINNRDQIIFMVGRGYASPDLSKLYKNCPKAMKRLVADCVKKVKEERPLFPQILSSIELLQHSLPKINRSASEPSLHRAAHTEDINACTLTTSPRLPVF
B-Raf, sequence (P15056 whole entry): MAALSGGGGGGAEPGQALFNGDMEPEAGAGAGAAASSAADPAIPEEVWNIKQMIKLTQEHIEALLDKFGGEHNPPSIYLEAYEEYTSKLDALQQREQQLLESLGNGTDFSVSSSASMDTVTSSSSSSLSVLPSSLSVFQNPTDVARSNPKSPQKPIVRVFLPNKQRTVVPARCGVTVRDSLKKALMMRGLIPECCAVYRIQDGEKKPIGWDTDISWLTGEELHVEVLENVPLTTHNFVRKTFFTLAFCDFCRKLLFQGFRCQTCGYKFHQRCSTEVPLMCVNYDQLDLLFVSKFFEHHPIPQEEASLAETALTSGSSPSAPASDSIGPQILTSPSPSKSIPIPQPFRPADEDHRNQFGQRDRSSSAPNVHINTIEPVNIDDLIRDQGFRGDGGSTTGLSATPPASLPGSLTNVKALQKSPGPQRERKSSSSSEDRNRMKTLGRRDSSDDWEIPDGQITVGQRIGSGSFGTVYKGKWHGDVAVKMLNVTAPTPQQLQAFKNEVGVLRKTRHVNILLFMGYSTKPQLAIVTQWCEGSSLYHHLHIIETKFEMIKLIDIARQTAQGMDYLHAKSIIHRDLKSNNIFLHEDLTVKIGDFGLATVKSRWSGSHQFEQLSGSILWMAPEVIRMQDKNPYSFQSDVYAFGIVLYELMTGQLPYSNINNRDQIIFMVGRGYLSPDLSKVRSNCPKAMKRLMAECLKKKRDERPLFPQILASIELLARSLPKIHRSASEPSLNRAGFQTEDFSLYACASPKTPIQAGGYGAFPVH

| SMILES | IC50 (B-Raf) [nM] | IC50 (c-Raf) [nM] |
| --- | --- | --- |
| COC(=O)Nc1nc2cc(C3(O)c4ccccc4C(=O)N3c3cccc(Cl)c3F)ccc2[nH]1 (stereo not shown) [Entry 224, methyl {5-[2-(3-chloro-2-fluorophenyl)-1-hydroxy-3-oxo-2,3-dihydro-1H-isoindol-1-yl]-1H-benzimidazol-2-yl}carbamate] | < 100 | < 100 |
| COC(=O)Nc1nc2cc(C3(O)c4ccccc4C(=O)N3c3cccc(C#N)c3)ccc2[nH]1 (stereo not shown) [Entry 225, methyl {5-[2-(3-cyanophenyl)-1-hydroxy-3-oxo-2,3-dihydro-1H-isoindol-1-yl]-1H-benzimidazol-2-yl}carbamate] | 100 to 1000 | 100 to 1000 |
| C#Cc1cc(N2C(=O)c3ccccc3C2(O)c2ccc3[nH]c(NC(=O)OC)nc3c2)ccc1F (stereo not shown) [Entry 226, methyl {5-[2-(3-ethynyl-4-fluorophenyl)-1-hydroxy-3-oxo-2,3-dihydro-1H-isoindol-1-yl]-1H-benzimidazol-2-yl}carbamate] | < 100 | < 100 |
| COC(=O)Nc1nc2cc(C3(O)c4ccccc4C(=O)N3c3ccc(F)c(C)c3)ccc2[nH]1 (stereo not shown) [Entry 227, methyl {5-[2-(4-fluoro-3-methylphenyl)-1-hydroxy-3-oxo-2,3-dihydro-1H-isoindol-1-yl]-1H-benzimidazol-2-yl}carbamate] | < 100 | < 100 |
| COC(=O)Nc1nc2ccc(C3(O)c4ccccc4C(=O)N3c3ccc(Cl)c(Cl)c3F)cc2[nH]1 (stereo not shown) [Entry 228, methyl {6-[2-(3,4-dichloro-2-fluorophenyl)-1-hydroxy-3-oxo-2,3-dihydro-1H-isoindol-1-yl]-1H-benzimidazol-2-yl}carbamate] | < 100 | < 100 |
| CC1(C)OC[C@@H](COC(=O)Nc2nc3cc(C4(O)c5ccccc5C(=O)N4Cc4ccccc4)ccc3[nH]2)O1 (stereo partly drawn) [Entry 229, [(4S)-2,2-dimethyl-1,3-dioxolan-4-yl]methyl {5-[1-hydroxy-3-oxo-2-(phenylmethyl)-2,3-dihydro-1H-isoindol-1-yl]-1H-benzimidazol-2-yl}carbamate] | < 100 | < 100 |
| COC(=O)Nc1nc2cc(C3(O)c4ccccc4C(=O)N3c3cc(Br)ccc3F)ccc2[nH]1 (stereo not shown) [Entry 230, methyl {5-[2-(5-bromo-2-fluorophenyl)-1-hydroxy-3-oxo-2,3-dihydro-1H-isoindol-1-yl]-1H-benzimidazol-2-yl}carbamate] | < 100 | < 100 |
| COC(=O)Nc1nc2cc(C3(O)c4ccccc4C(=O)N3c3cccc(NC(C)=O)c3)ccc2[nH]1 (stereo not shown) [Entry 231, methyl (5-{2-[3-(acetylamino)phenyl]-1-hydroxy-3-oxo-2,3-dihydro-1H-isoindol-1-yl}-1H-benzimidazol-2-yl)carbamate] | < 100 | < 100 |
| COC(=O)Nc1nc2cc(C3(O)c4ccccc4C(=O)N3c3cccc(Cc4ccccc4)c3)ccc2[nH]1 (stereo not shown) [Entry 232, methyl (5-{1-hydroxy-3-oxo-2-[3-(phenylmethyl)phenyl]-2,3-dihydro-1H-isoindol-1-yl}-1H-benzimidazol-2-yl)carbamate] | < 100 | < 100 |
| COC(=O)Nc1nc2cc(C3(O)c4ccccc4C(=O)N3C(C)c3cc(Cl)cs3)ccc2[nH]1 (stereo not shown) [Entry 233, methyl (5-{2-[1-(4-chloro-2-thienyl)ethyl]-1-hydroxy-3-oxo-2,3-dihydro-1H-isoindol-1-yl}-1H-benzimidazol-2-yl)carbamate] | < 100 | < 100 |
| COC(=O)Nc1nc2cc(C3(O)c4ccccc4C(=O)N3c3cccc(C(=O)c4ccccc4)c3)ccc2[nH]1 (stereo not shown) [Entry 234, methyl (5-{1-hydroxy-3-oxo-2-[3-(phenylcarbonyl)phenyl]-2,3-dihydro-1H-isoindol-1-yl}-1H-benzimidazol-2-yl)carbamate] | 1000 to 10000 | 100 to 1000 |
| COC(=O)Nc1nc2cc(C3(O)c4ccccc4C(=O)N3c3cccc(CN(C)C)c3)ccc2[nH]1 (stereo not shown) [Entry 235, methyl [5-(2-{3-[(dimethylamino)methyl]phenyl}-1-hydroxy-3-oxo-2,3-dihydro-1H-isoindol-1-yl)-1H-benzimidazol-2-yl]carbamate] | 100 to 1000 | 100 to 1000 |
| COC(=O)Nc1nc2cc(C3(O)c4ccccc4C(=O)N3c3cccc(S(N)(=O)=O)c3)ccc2[nH]1 (stereo not shown) [Entry 236, methyl (5-{2-[3-(aminosulfonyl)phenyl]-1-hydroxy-3-oxo-2,3-dihydro-1H-isoindol-1-yl}-1H-benzimidazol-2-yl)carbamate] | 100 to 1000 | 100 to 1000 |
| COC(=O)Nc1nc2cc(C3(O)c4ccccc4C(=O)N3c3cccc(C(C)=O)c3)ccc2[nH]1 (stereo not shown) [Entry 237, methyl {5-[2-(3-acetylphenyl)-1-hydroxy-3-oxo-2,3-dihydro-1H-isoindol-1-yl]-1H-benzimidazol-2-yl}carbamate] | < 100 | < 100 |
| CCc1cc(N2C(=O)c3ccccc3C2(O)c2ccc3[nH]c(NC(=O)OC)nc3c2)ccc1F (stereo not shown) [Entry 238, methyl {5-[2-(3-ethyl-4-fluorophenyl)-1-hydroxy-3-oxo-2,3-dihydro-1H-isoindol-1-yl]-1H-benzimidazol-2-yl}carbamate] | < 100 | < 100 |
| COC(=O)Nc1nc2cc(C3(O)c4ccccc4C(=O)N3c3cc(F)cc(Cl)c3)ccc2[nH]1 (stereo not shown) [Entry 239, methyl {5-[2-(3-chloro-5-fluorophenyl)-1-hydroxy-3-oxo-2,3-dihydro-1H-isoindol-1-yl]-1H-benzimidazol-2-yl}carbamate] | < 100 | < 100 |
| CC(C)C(=O)Nc1nc2ccc(C3(O)c4ccccc4C(=O)N3Cc3ccccc3)cc2[nH]1 (stereo not shown) [Entry 240, N-{6-[1-hydroxy-3-oxo-2-(phenylmethyl)-2,3-dihydro-1H-isoindol-1-yl]-1H-benzimidazol-2-yl}-2-methylpropanamide] | 100 to 1000 | 100 to 1000 |
| COC(=O)Nc1nc2cc(C3(O)c4ccccc4C(=O)N3C(C)c3sccc3Cl)ccc2[nH]1 (stereo not shown) [Entry 241, methyl (5-{2-[1-(3-chloro-2-thienyl)ethyl]-1-hydroxy-3-oxo-2,3-dihydro-1H-isoindol-1-yl}-1H-benzimidazol-2-yl)carbamate] | 1000 to 10000 | 1000 to 10000 |
| COC(=O)Nc1nc2cc(C3(O)c4ccccc4C(=O)N3c3cccnc3)ccc2[nH]1 (stereo not shown) [Entry 242, methyl [5-(1-hydroxy-3-oxo-2-pyridin-3-yl-2,3-dihydro-1H-isoindol-1-yl)-1H-benzimidazol-2-yl]carbamate] | 100 to 1000 | < 100 |
| COC(=O)Nc1nc2cc(C3(O)c4ccccc4C(=O)N3c3cccc(Nc4ccccc4)c3)ccc2[nH]1 (stereo not shown) [Entry 243, methyl (5-{1-hydroxy-3-oxo-2-[3-(phenylamino)phenyl]-2,3-dihydro-1H-isoindol-1-yl}-1H-benzimidazol-2-yl)carbamate] | 100 to 1000 | 100 to 1000 |
| COC(=O)Nc1nc2cc(C3(O)c4ccccc4C(=O)N3c3cc(Br)c(F)cc3F)ccc2[nH]1 (stereo not shown) [Entry 244, methyl {5-[2-(5-bromo-2,4-difluorophenyl)-1-hydroxy-3-oxo-2,3-dihydro-1H-isoindol-1-yl]-1H-benzimidazol-2-yl}carbamate] | < 100 | < 100 |
| COC(=O)Nc1nc2cc(C3(O)c4ccccc4C(=O)N3c3cc(Cl)c(F)cc3F)ccc2[nH]1 (stereo not shown) [Entry 245, methyl {5-[2-(5-chloro-2,4-difluorophenyl)-1-hydroxy-3-oxo-2,3-dihydro-1H-isoindol-1-yl]-1H-benzimidazol-2-yl}carbamate] | < 100 | < 100 |
| COC(=O)Nc1nc2cc(C3(O)c4ccccc4C(=O)N3c3cc(Cl)c(F)c(Cl)c3)ccc2[nH]1 (stereo not shown) [Entry 246, methyl {5-[2-(3,5-dichloro-4-fluorophenyl)-1-hydroxy-3-oxo-2,3-dihydro-1H-isoindol-1-yl]-1H-benzimidazol-2-yl}carbamate] | 1000 to 10000 | 100 to 1000 |
| COCC(C)(C)COC(=O)Nc1nc2cc(C3(O)c4ccccc4C(=O)N3Cc3ccccc3)ccc2[nH]1 (stereo not shown) [Entry 247, 2,2-dimethyl-3-(methyloxy)propyl {5-[1-hydroxy-3-oxo-2-(phenylmethyl)-2,3-dihydro-1H-isoindol-1-yl]-1H-benzimidazol-2-yl}carbamate] | 100 to 1000 | 100 to 1000 |
| CC(C)(CO)COC(=O)Nc1nc2cc(C3(O)c4ccccc4C(=O)N3Cc3ccccc3)ccc2[nH]1 (stereo not shown) [Entry 248, 3-hydroxy-2,2-dimethylpropyl {5-[1-hydroxy-3-oxo-2-(phenylmethyl)-2,3-dihydro-1H-isoindol-1-yl]-1H-benzimidazol-2-yl}carbamate] | 100 to 1000 | 100 to 1000 |
| COC(=O)Nc1nc2cc(C3(O)c4ccccc4C(=O)N3C(C)c3ccc(Br)s3)ccc2[nH]1 (stereo not shown) [Entry 249, methyl (5-{2-[1-(5-bromo-2-thienyl)ethyl]-1-hydroxy-3-oxo-2,3-dihydro-1H-isoindol-1-yl}-1H-benzimidazol-2-yl)carbamate] | < 100 | < 100 |
| COC(=O)Nc1nc2cc(C3(O)c4ccccc4C(=O)N3c3cc(Cl)c(Cl)cc3F)ccc2[nH]1 (stereo not shown) [Entry 250, methyl {5-[2-(4,5-dichloro-2-fluorophenyl)-1-hydroxy-3-oxo-2,3-dihydro-1H-isoindol-1-yl]-1H-benzimidazol-2-yl}carbamate] | < 100 | < 100 |
| COC(=O)Nc1nc2cc(C3(O)c4ccccc4C(=O)N3c3cccc(Br)c3F)ccc2[nH]1 (stereo not shown) [Entry 251, methyl {5-[2-(3-bromo-2-fluorophenyl)-1-hydroxy-3-oxo-2,3-dihydro-1H-isoindol-1-yl]-1H-benzimidazol-2-yl}carbamate] | < 100 | < 100 |
| COC(=O)Nc1nc2cc(C3(O)c4ccccc4C(=O)N3c3ccc(F)c(Cl)c3F)ccc2[nH]1 (stereo not shown) [Entry 252, methyl {5-[2-(3-chloro-2,4-difluorophenyl)-1-hydroxy-3-oxo-2,3-dihydro-1H-isoindol-1-yl]-1H-benzimidazol-2-yl}carbamate] | < 100 | < 100 |
